pEC50: −log10 of the molar value.
What was measured:
[1] = test system: HCV replicon in human hepatoma Huh-7 cell line; test: Anti-HCV replicon assay, EC50 (luciferase luminescence); type: cell-based; conditions: Hepatitis C virus, Huh-7, 72 h
In short: (§1)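 Cytotoxicity (CC50) read by CellTiter-Glo luminescence after 10 min, and antiviral EC50 by luciferase signal after 30 min lysis with substrate, both at room temperature. Preceding step: 3-day exposure of 6000 Huh-7 HCV replicon cells per well to compound dilution series at 37° C, 5% CO2, in 0.5% DMSO.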

[2] = CC50 assay (CellTiter-Glo) in Huh-7 HCV replicon cells; type: cell-based; conditions: human, Table 2, 3 days incubation
In short: as §1

| Compound | pEC50 [1] | CC50 at 3 days [2] [nM] |
| --- | --- | --- |
| CCOc1ccc(-c2ccc3nc(NCc4ccc(-n5ccnc5)cc4)nc(NCC(F)(F)F)c3n2)cc1S(N)(=O)=O [Example 262, 5-(2-(4-(1H-imidazol-1-yl)benzylamino)-4-(2,2,2-trifluoroethylamino)pyrido [3,2-d]pyrimidin-6-yl)-2-ethoxybenzenesulfonamide] | > 7.00 | 1000 to 10000 |
| CCOc1ccc(-c2ccc3nc(NCc4ccc(-n5cncn5)cc4)nc(OC4(C)CC4)c3n2)cc1S(N)(=O)=O [Example 263, 5-(2-(4-(1H-1,2,4-triazol-1-yl)benzylamino)-4-(1-methylcyclopropoxy)pyrido [3,2-d)pyrimidin-6-yl)-2-ethoxybenzenesulfonamide] | > 7.00 | 1000 to 10000 |
| CCOc1ccc(-c2ccc3nc(N[C@H](C)c4ccc(S(N)(=O)=O)cc4)nc(OC4(C)CC4)c3n2)cc1S(N)(=O)=O [Example 264, 4-((R)-1-(6-(4-ethoxy-3-(aminosulfonyl)phenyl)-4-(1-methylcyclopropoxy)pyrido [3,2-d]pyrimidin-2-ylamino)ethyl)benzenesulfonamide] | > 7.00 | 1000 to 10000 |
| CCOc1ccc(-c2ccc3nc(N[C@H](C)c4ccc(-n5cncn5)cc4)nc(NCC(F)(F)F)c3n2)cc1S(N)(=O)=O [Example 265, 5-(2-((R)-1-(4-(1H-1,2,4-triazol-1-yl)phenyl)ethylamino)-4-(2,2,2-trifluoroethylamino)pyrido [3,2-d]pyrimidin-6-yl)-2-ethoxybenzenesulfonamide] | > 7.00 | 1000 to 10000 |
| CCOc1ccc(-c2ccc3nc(N[C@H]4CCN(C(=O)[C@H](NC(=O)OC)C(C)C)C4)nc(NCC(F)(F)F)c3n2)cc1S(N)(=O)=O [Example 266, methyl (R)-1-((S)-3-(6-(4-ethoxy-3-(aminosulfonyl)phenyl)-4-(2,2,2-trifluoroethylamino)pyrido[3,2-d]pyrimidin-2-ylamino)pyrrolidin-1-yl)-3-methyl-1-oxobutan-2-ylcarbamate] | > 7.00 | 1000 to 10000 |
| c1ncn(-c2ccc(CNc3nc(C4CC4)c4nc(-c5ccc(OC6CC6)nc5)ccc4n3)cc2)n1 [Example 267, N-(4-(1H-1,2,4-triazol-1-yl)benzyl)-6-(6-cyclopropoxy-pyridin-3-yl)-4-cyclopropyl-pyrido[3,2-d]pyrimidin-2-amine] | 6.60 to 7.00 | > 10000 |
| C[C@@H](Nc1nc(NCC(F)(F)F)c2nc(C#CC3CC3)ccc2n1)c1ccc(S(N)(=O)=O)cc1 [Example 275, (R)-4-(1-(6-(2-cyclopropyl-ethynyl)-4-(2,2,2-trifluoro-ethylamino)pyrido[3,2-d]pyrimidin-2-ylamino)ethyl) benzenesulfonamide] | > 7.00 | > 10000 |
| C[C@@H](Nc1nc(NCC(F)(F)F)c2nc(C#CC(C)(C)O)ccc2n1)c1ccc(S(N)(=O)=O)cc1 [Example 276, (R)-4-(1-(6-(3-hydroxy-3-methylbut-1-ynyl)-4-(2,2,2-trifluoroethylamino)pyrido [3,2-d]pyrimidin-2-ylamino)ethyl)benzenesulfonamide] | 5.70 to 6.60 | > 10000 |
| COCC#Cc1ccc2nc(N[C@H](C)c3ccc(S(N)(=O)=O)cc3)nc(NCC(F)(F)F)c2n1 [Example 277, (R)-4-(1-(6-(3-methoxyprop-1-ynyl)-4-(2,2,2-trifluoroethyl-amino)pyrido[3,2-d]pyrimidin-2-ylamino)ethyl)benzene-sulfonamide] | > 7.00 | > 10000 |
| NS(=O)(=O)c1cc(CNc2nc(NCC(F)(F)F)c3nc(C#CC4CC4)ccc3n2)cc(C(F)(F)F)c1 [Example 278, 3-((6-(2-cyclopropylethynyl)-4-(2,2,2-trifluoroethylamino)pyrido[3,2-d]pyrimidin-2-ylamino)methyl)-5-(trifluoro-methyl)benzenesulfonamide] | 6.60 to 7.00 | > 10000 |
| NS(=O)(=O)c1ccc(CNc2nc(NCC(F)(F)F)c3nc(C#CC4CC4)ccc3n2)cc1 [Example 279, 4-((6-(2-cyclopropylethynyl)-4-(2,2,2-trifluoroethylamino)pyrido[3,2-d]pyrimidin-2-ylamino)methyl)benzene-sulfonamide] | 6.60 to 7.00 | > 10000 |
| NS(=O)(=O)c1cc(Cl)cc(CNc2nc(NCC(F)(F)F)c3nc(C#CC4CC4)ccc3n2)c1 [Example 280, 3-chloro-5-((6-(2-cyclopropyl-ethynyl)-4-(2,2,2-trifluoro-ethylamino)pyrido[3,2-d]pyrimidin-2-ylamino)methyl) benzenesulfonamide] | > 7.00 | > 10000 |
| C[C@H](Cn1cncn1)Nc1nc(NCC(F)(F)F)c2nc(C#CC3CC3)ccc2n1 [Example 281, (R)-N^2-(1-(1H-1,2,4-triazol-1-yl)propan-2-yl)-6-(2-cyclopropyl-ethynyl)-N^4-(2,2,2-trifluoro-ethyl)pyrido[3,2-d]pyrimidine-2,4-diamine] | 5.70 to 6.60 | > 10000 |
| COCC#Cc1ccc2nc(NCc3cc(C(F)(F)F)cc(S(N)(=O)=O)c3)nc(NCC(F)(F)F)c2n1 [Example 282, 3-((6-(3-methoxyprop-1-ynyl)-4-(2,2,2-trifluoroethylamino)pyrido[3,2-d]pyrimidin-2-ylamino)methyl)-5-(trifluoro-methyl)benzenesulfonamide] | 5.70 to 6.60 | > 10000 |
| COCC#Cc1ccc2nc(NCc3ccc(S(N)(=O)=O)cc3)nc(NCC(F)(F)F)c2n1 [Example 283, 4-((6-(3-methoxyprop-1-ynyl)-4-(2,2,2-trifluoroethylamino)pyrido[3,2-d]pyrimidin-2-ylamino)methyl)benzene-sulfonamide] | 6.60 to 7.00 | > 10000 |
| C#Cc1ccc2nc(N[C@H](C)c3ccc(S(N)(=O)=O)cc3)nc(NCC(F)(F)F)c2n1 [Example 284, (R)-4-(1-(6-ethynyl-4-(2,2,2-trifluoroethylamino)pyrido [3,2-d]pyrimidin-2-ylamino)ethyl)benzenesulfonamide] | > 7.00 | > 10000 |
| C[C@@H](Nc1nc(NCC(F)(F)F)c2nc(C#CC(C)(C)C)ccc2n1)c1ccc(S(N)(=O)=O)cc1 [Example 285, (R)-4-(1-(6-(3,3-dimethylbut-1-ynyl)-4-(2,2,2-trifluoroethyl-amino)pyrido[3,2-d]pyrimidin-2-ylamino)ethyl)benzene-sulfonamide] | 5.70 to 6.60 | > 10000 |
| NS(=O)(=O)c1ccc(CNc2nc(OC3CC3)c3nc(C#CC4CC4)ccc3n2)cc1 [Example 286, 4-((4-cyclopropoxy-6-(2-cyclopropylethynyl)pyrido [3,2-d]pyrimidin-2-ylamino)methyl)benzenesulfonamide] | 6.60 to 7.00 | > 10000 |
| FC(F)(F)CNc1nc(NCc2ccc(-n3cncn3)cc2)nc2ccc(C#CC3CC3)nc12 [Example 287, N^2-(4-(1H-1,2,4-triazol-1-yl)benzyl)-6-(2-cyclopropyl-ethynyl)-N^4-(2,2,2-trifluoroethyl) pyrido[3,2-d]pyrimidine-2,4-diamine] | 6.60 to 7.00 | > 10000 |
| C#Cc1ccc2nc(NCc3ccc(S(N)(=O)=O)cc3)nc(NCC(F)(F)F)c2n1 [Example 288, 4-((6-ethynyl-4-(2,2,2-trifluoroethylamino)pyrido [3,2-d]pyrimidin-2-ylamino)methyl)benzenesulfonamide] | > 7.00 | 1000 to 10000 |

Reference: US8536187B2 (Gilead Sciences, Inc., priority 2008, dated 2013)
